# Measured values as given in patent US11873298B2, “Compounds and uses thereof” (JANSSEN PHARMACEUTICA NV, priority 2017, dated 2024).
# Key:
# SCD1 = target: T1, SCD1 (Homo sapiens, UniProt O00767); assay: Growth inhibition of humanized yeast strain expressing SCD1 as sole desaturase; type: cell-based; details: humanized yeast strain, 40 h
# T1 construct: host or cells: S. cerevisiae ole1Δ strain (W303 pdr1Δ pdr3Δ background), plasmid pRS316 with TDH3 promoter and CYC1 terminator
# T1 sequence (O00767 1-359): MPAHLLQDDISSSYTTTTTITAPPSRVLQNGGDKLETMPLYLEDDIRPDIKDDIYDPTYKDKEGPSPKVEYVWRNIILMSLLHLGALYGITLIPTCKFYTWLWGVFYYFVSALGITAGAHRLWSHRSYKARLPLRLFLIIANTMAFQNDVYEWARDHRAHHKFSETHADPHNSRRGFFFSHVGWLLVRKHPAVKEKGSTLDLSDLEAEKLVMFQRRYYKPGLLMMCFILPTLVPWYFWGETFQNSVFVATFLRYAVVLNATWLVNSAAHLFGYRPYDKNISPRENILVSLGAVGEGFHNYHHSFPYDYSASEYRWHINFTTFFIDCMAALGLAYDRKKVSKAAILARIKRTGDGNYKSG
# Procedure, shortened: (§1)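 Plasmid-complemented ole1Δ yeast, drug-pump deleted (pdr1Δ pdr3Δ), depend solely on the introduced Ole1, SCD1 or SCD5 desaturase. Compounds are added from DMSO to cells in uracil-free galactose medium, 2× density 0.02, and OD600 is read after 24 h or 40 h respectively.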
# SCD5 = target: T2, SCD5 (Homo sapiens, UniProt Q86SK9); assay: Growth inhibition of humanized yeast strain expressing SCD5 as sole desaturase; type: cell-based; details: humanized yeast strain, 40 h
# T2 construct: host or cells: S. cerevisiae ole1Δ strain (W303 pdr1Δ pdr3Δ background), plasmid pRS316 with TDH3 promoter and CYC1 terminator
# T2 sequence (Q86SK9 1-330): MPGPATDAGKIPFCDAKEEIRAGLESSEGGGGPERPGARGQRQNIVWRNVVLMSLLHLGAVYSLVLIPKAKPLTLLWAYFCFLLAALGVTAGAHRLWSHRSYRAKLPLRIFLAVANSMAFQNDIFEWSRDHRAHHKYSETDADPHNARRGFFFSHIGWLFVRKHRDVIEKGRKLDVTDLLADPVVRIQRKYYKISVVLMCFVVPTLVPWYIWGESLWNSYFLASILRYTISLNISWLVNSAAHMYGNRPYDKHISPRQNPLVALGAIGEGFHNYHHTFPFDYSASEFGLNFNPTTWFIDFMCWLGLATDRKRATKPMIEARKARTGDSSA
# Procedure, shortened: as §1
SMILES,IC50 (SCD1),IC50 (SCD5)
COC(=O)N1CCC(c2noc(-c3ccnc(C4CCCO4)c3)n2)CC1 (stereo not drawn) [Compound 973],> 45 µM,> 45 µM
O=C(CC1CC1)N1CCC(c2noc(-c3ccc4cnn(C5CCOC5)c4c3)n2)CC1 (stereo not drawn) [Compound 974],> 45 µM,0.01 µM
CCC(=O)N1CCC(c2noc(-c3ccc4cnn(C5CCOC5)c4c3)n2)CC1 (stereo not drawn) [Compound 975],> 45 µM,0.01 µM
CC(C)(C)OC(=O)N1CCN(c2nnc(-c3ccc4cnn(C5COC5)c4c3)o2)CC1 [Compound 976],> 45 µM,5.33 µM
CC(C)(C)OC(=O)N1CCN(c2noc(-c3ccnc(OC4COC4)c3)n2)CC1 [Compound 977],> 45 µM,5.94 µM
CCC(=O)N1CCN(c2noc(-c3ccnc(NC4COC4)c3)n2)CC1 [Compound 978],> 45 µM,> 45 µM
CC(C)(C)OC(=O)N1CCC(c2noc(-c3cccc(N4CCOCC4)c3)n2)CC1 [Compound 979],> 45 µM,0.168 µM
CC1(OC(=O)N2CCC(c3nnc(-c4ccc5cnn(C6COC6)c5c4)o3)CC2)CC1 [Compound 980],> 45 µM,0.877 µM
CC1(OC(=O)N2CCC(c3nnc(-c4ccc5cnn(C6COC6)c5c4)o3)CC2)CCC1 [Compound 981],> 45 µM,0.045 µM
CC(C)(C)OC(=O)N1CCC(c2noc(-c3ccnc(OC4COC4)c3)n2)CC1 [Compound 982],0.01 µM,0.327 µM
COC(=O)N1CCC(c2noc(-c3cccc(N4CCOCC4)c3)n2)CC1 [Compound 983],> 45 µM,1.51 µM
CC(C)(C)OC(=O)N1CC=C(c2cnc(-c3ccc4cnn(C5COC5)c4c3)nc2)CC1 [Compound 984],> 45 µM,> 45 µM
CC(C)(C)OC(=O)N1CCC(c2cnc(-c3ccc4cnn(C5COC5)c4c3)nc2)CC1 [Compound 985],> 45 µM,2.56 µM
CC1(OC(=O)N2CCC(c3nnc(-c4ccc5cnn(C6CCOC6)c5c4)o3)CC2)CC1 (stereo not drawn) [Compound 986],> 45 µM,0.048 µM
O=C(C1CC1)N1CCN(c2nnc(-c3ccc4cnn(C5COC5)c4c3)o2)CC1 [Compound 987],> 45 µM,> 45 µM
CC(C)(C)OC(=O)N1CCC(c2noc(-c3ccc4cnn(C5COC5)c4c3F)n2)CC1 [Compound 988],> 45 µM,0.024 µM
Fc1c(-c2nc(C3CCNCC3)no2)ccc2cnn(C3COC3)c12 [Compound 989],> 45 µM,> 45 µM
CC(C)(C)OC(=O)N1CCC(c2noc(-c3ccc4cnn(C5CS(=O)(=O)C5)c4c3)n2)CC1 [Compound 990],> 45 µM,0.01 µM
O=C(C1CC12CC2)N1CCN(c2nnc(-c3ccc4cnn(C5COC5)c4c3)o2)CC1 (stereo not drawn) [Compound 991],> 45 µM,> 45 µM

SMILES,IC50 (SCD1),IC50 (SCD5)
CC(C)(C)OC(=O)N1CCC(c2nc(-c3ccnc(C4CCOC4)c3)no2)CC1 (stereo not drawn) [Compound 992],> 45 µM,0.081 µM
O=C(C1CC2(CC2)C1)N1CCN(c2nnc(-c3ccc4cnn(C5COC5)c4c3)o2)CC1 [Compound 993],> 45 µM,3.81 µM
O=C(N1CCN(c2nnc(-c3ccc4cnn(C5COC5)c4c3)o2)CC1)C12CC(C1)C2 [Compound 994],> 45 µM,> 45 µM
CC1(CC(=O)N2CCN(c3nnc(-c4ccc5cnn(C6COC6)c5c4)o3)CC2)CC1 [Compound 995],> 45 µM,> 45 µM
O=C(C1CCC1)N1CCN(c2nnc(-c3ccc4cnn(C5COC5)c4c3)o2)CC1 [Compound 996],> 45 µM,5.04 µM
CC(C)(C)OC(=O)N1CCN(c2noc(-c3ccc4cnn(C5CS(=O)(=O)C5)c4c3)n2)CC1 [Compound 997],> 45 µM,0.022 µM
COC(=O)N1CCN(c2noc(-c3ccc4cnn(C5CS(=O)(=O)C5)c4c3)n2)CC1 [Compound 998],> 45 µM,4.13 µM
CC(C)(C)OC(=O)N1CCC(c2noc(-c3ccnc(C4CCOC4)c3)n2)CC1 (stereo not drawn) [Compound 999],> 45 µM,0.01 µM
COC(=O)N1CCC(c2noc(-c3ccc4cnn(C5CS(=O)(=O)C5)c4c3)n2)CC1 [Compound 1000],> 45 µM,0.65 µM
O=C(C1CCC1)N1CCN(c2noc(-c3ccnc(NC4COC4)c3)n2)CC1 [Compound 1001],> 45 µM,15.6 µM
COC(=O)N1CCN(c2noc(-c3ccnc(OC4COC4)c3)n2)CC1 [Compound 1002],> 45 µM,5.05 µM
CC(C)(C)OC(=O)N1CCC(c2noc(-c3ccnc(C4CCCO4)c3)n2)CC1 (stereo not drawn) [Compound 1003],> 45 µM,0.457 µM
COC(=O)N1CCC(c2noc(-c3ccc4cnn(C5COC5)c4c3F)n2)CC1 [Compound 1004],> 45 µM,0.297 µM
CC(C)(C)OC(=O)N1CCC(c2noc(-c3ccc4oc(=O)n(C5COC5)c4c3)n2)CC1 [Compound 1005],> 45 µM,0.01 µM
CC(C)(C)OC(=O)N1CCC(c2noc(-c3ccc(OC4COC4)c(NC4COC4)c3)n2)CC1 [Compound 1006],> 45 µM,0.637 µM
COC(=O)N1CCN(c2noc(-c3ccnc(OC(CO)CO)c3)n2)CC1 [Compound 1007],> 45 µM,> 45 µM
CC1(OC(=O)N2CCN(c3noc(-c4ccnc(NC5COC5)c4)n3)CC2)CC1 [Compound 1008],> 45 µM,2.02 µM
CC(C)(C)OC(=O)N1CCC(c2noc(-c3ccc4oc(=O)[nH]c4c3)n2)CC1 [Compound 1009],> 45 µM,9.51 µM
CC(C)(C)OC(=O)N1CC=C(c2ccc(-c3ccc4cnn(C5COC5)c4c3)nc2)CC1 [Compound 1010],> 45 µM,0.816 µM

SMILES,IC50 (SCD1),IC50 (SCD5)
CC(C)(C)OC(=O)N1CCN(c2noc(-c3ccc4cnn(C5COC5)c4c3)n2)CC(F)(F)C1 [Compound 1012],15 µM,0.01 µM
COC(=O)N1CCN(c2noc(-c3cccc(OC4COC4)c3)n2)CC1 [Compound 1013],> 45 µM,0.367 µM
COC(=O)N1CCC(c2nc(-c3ccc4cnn(C5CS(=O)(=O)C5)c4c3)no2)CC1 [Compound 1014],> 45 µM,4.82 µM
COC(=O)N1CCC(c2noc(-c3ccnc(C4CCOC4)c3)n2)CC1 (stereo not drawn) [Compound 1015],> 45 µM,0.429 µM
CC1(OC(=O)N2CCC(c3noc(-c4ccnc(C5CCOC5)c4)n3)CC2)CC1 (stereo not drawn) [Compound 1016],> 45 µM,0.0614 µM
C[C@@H]1C[C@H](c2noc(-c3ccc4cnn(C5COC5)c4c3)n2)CCN1C(=O)OC(C)(C)C [Compound 1017],17.1 µM,0.01 µM
C[C@H]1C[C@H](c2noc(-c3ccc4cnn(C5COC5)c4c3)n2)CCN1C(=O)OC(C)(C)C [Compound 1018],20.3 µM,0.01 µM
C[C@@H]1C[C@@H](c2noc(-c3ccc4cnn(C5COC5)c4c3)n2)CCN1C(=O)OC(C)(C)C [Compound 1019],12.2 µM,0.01 µM
CC(C)(C)OC(=O)N1CC2(CC(c3noc(-c4ccc5cnn(C6COC6)c5c4)n3)C2)C1 [Compound 1020],14.6 µM,0.17 µM
O=C(C1CC2(CC2)C1)N1CCC(c2noc(-c3ccc4oc(=O)n(C5COC5)c4c3)n2)CC1 [Compound 1021],> 45 µM,0.223 µM
CN(c1cc(-c2nc(N3CCN(C(=O)OC(C)(C)C)CC3)no2)ccn1)C1COC1 [Compound 1022],> 45 µM,0.01 µM
CC(C)C(=O)N1CCC(c2nc(-c3ccc4cnn(C5COC5)c4c3)no2)CC1 [Compound 1023],> 45 µM,0.295 µM
CC(C)C(=O)N1CCC(c2noc(-c3ccc4cnn(C5CCOC5)c4c3)n2)CC1 (stereo not drawn) [Compound 1024],> 45 µM,0.01 µM
C[C@H]1C[C@@H](c2noc(-c3ccc4cnn(C5COC5)c4c3)n2)CCN1C(=O)OC(C)(C)C [Compound 1025],> 45 µM,0.01 µM
CC(C)(C)OC(=O)N1CCC(c2cc(-c3ccc4cnn(C5COC5)c4c3)on2)CC1 [Compound 1026],3.98 µM,0.2 µM
COC(=O)N1CCC(c2cc(-c3ccc4cnn(C5COC5)c4c3)on2)CC1 [Compound 1027],> 45 µM,3.16 µM
O=C(N1CCC(c2noc(-c3ccc4cnn(C5CCOC5)c4c3)n2)CC1)C1(F)CCC1 (stereo not drawn) [Compound 1028],0.953 µM,0.01 µM
O=C(N1CCC(c2noc(-c3ccc4cnn(C5COC5)c4c3)n2)CC1)C1(F)CCC1 [Compound 1029],> 45 µM,0.01 µM
CC(C)(C)OC(=O)N1CCC(c2ccc(-c3ccc4cnn(C5COC5)c4c3)nn2)CC1 [Compound 1030],> 45 µM,11 µM
